Literature values in patent US8338381B2, “Composition and method for the treatment of eye disease” (ADER Enterprise, Inc., priority 2003, dated 2012).

How the values were obtained:
[1] = administered directly to the eye; Babizhayev 1996
[2] = test system: eye cataracts; settings: administered directly to the eye; Babizhayev 1996

## NCCC(=O)N[C@@H](Cc1cnc[nH]1)C(=O)O [L-carnosine, β-alanyl-L-histidine]
[1]
  accumulation in the aqueous humor of the eye: does not lead to accumulation in the aqueous humor of the eye
[2]
  effect on eye cataracts beyond placebo control: does not lead to accumulation in the aqueous humor of the eye or have any significant effect on eye cataracts beyond that of a placebo control
